We go through nine compounds from ChEMBL document CHEMBL1123633, “Cardiotonic agents. 8. Selective inhibitors of adenosine 3',5'-cyclic phosphate phosphodiesterase III. Elaboration of a five-point model for positive inotropic activity” (J Med Chem, 1987).

Molecules are shown by their SMILES. Some results are limits rather than exact numbers.

One may read the IC50 as the midpoint of a concentration-inhibition curve. A high value points to weaker potency. A word on the ED50: it is the dose at which the effect has come halfway, by size or by number of responders. A high value points to weaker potency.

One assay concerns the target Phosphodiesterase 3 (Homo sapiens, UniProt Q14432+Q13370). The assay can be described thus: Inhibition of cAMP PDE III enzyme. Type of assay: protein assay, Cavia porcellus.
The subject of the next assay is Canis familiaris. The assay is described as follows: 50% increase in myocardial contractility (dP/dt max) in anesthetized dogs on intravenous dose. Type of assay: functional. Particulars: Canis lupus familiaris, Myocardium.
Assay [1] concerns the target T1, Phosphodiesterase 1 (Homo sapiens, UniProt P54750+Q01064+Q14123). The assay can be described thus: Inhibition cGMP PDE I enzyme. Type of assay: protein assay, Cavia porcellus.
Assay [2] addresses T1, Phosphodiesterase 1. The assay can be described thus: Inhibition of cAMP PDE I enzyme. Type of assay: protein assay, Cavia porcellus.
In assay [3] the target is T2, cGMP-dependent 3',5'-cyclic phosphodiesterase (Homo sapiens, UniProt O00408). The assay can be described thus: Inhibition of cGMP PDE II enzyme. Also on record: species or system Cavia porcellus.
Assay [4] concerns the target T2, cGMP-dependent 3',5'-cyclic phosphodiesterase. The assay can be described thus: Inhibition of cAMP PDE II enzyme. Also on record: species or system Cavia porcellus.

T2 sequence (O00408 whole entry): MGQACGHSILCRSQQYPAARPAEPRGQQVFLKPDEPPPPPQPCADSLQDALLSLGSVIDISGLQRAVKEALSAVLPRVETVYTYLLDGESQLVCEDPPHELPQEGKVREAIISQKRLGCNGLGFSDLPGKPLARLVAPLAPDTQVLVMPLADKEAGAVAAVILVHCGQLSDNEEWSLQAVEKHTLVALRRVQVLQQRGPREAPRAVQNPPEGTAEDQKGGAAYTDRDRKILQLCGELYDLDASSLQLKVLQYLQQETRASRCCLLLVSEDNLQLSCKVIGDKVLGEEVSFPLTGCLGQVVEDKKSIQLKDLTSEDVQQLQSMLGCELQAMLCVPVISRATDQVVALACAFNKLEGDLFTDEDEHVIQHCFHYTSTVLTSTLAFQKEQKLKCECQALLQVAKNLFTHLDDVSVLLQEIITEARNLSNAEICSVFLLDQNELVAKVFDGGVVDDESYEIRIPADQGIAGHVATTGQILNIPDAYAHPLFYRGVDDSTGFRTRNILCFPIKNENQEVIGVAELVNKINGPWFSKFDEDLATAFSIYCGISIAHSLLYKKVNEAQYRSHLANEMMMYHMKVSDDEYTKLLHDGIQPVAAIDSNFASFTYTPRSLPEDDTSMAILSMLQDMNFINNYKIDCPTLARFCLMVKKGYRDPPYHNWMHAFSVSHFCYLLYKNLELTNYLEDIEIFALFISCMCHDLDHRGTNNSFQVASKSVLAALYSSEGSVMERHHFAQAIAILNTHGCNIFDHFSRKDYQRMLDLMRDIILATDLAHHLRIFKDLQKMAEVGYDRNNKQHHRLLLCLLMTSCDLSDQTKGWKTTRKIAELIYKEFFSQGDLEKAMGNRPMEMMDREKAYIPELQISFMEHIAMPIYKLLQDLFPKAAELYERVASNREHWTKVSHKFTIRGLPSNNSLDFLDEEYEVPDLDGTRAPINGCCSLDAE

Take `CC1CC(=O)NN=C1c1ccc2c(c1)CCC(=O)N2C` (stereo unspecified): the IC50 against Phosphodiesterase 3 turned out to be 0.12 µM.

For the compound `O=C1CC2Cc3cc(-n4ccnc4)ccc3C2=NN1` (stereo unspecified), it took a dose of 0.023 mg/kg to reach the 50% effect level in the assay with Canis familiaris (ED50).

As to `O=C1CCC(c2cccc(-n3ccnc3)c2)=NN1`, at Phosphodiesterase 1 [1], the IC50 was > 1000 µM.

`O=C1CC2Cc3cc(-n4cnc5c4CCCC5)ccc3C2=NN1` (stereo unspecified) displayed an ED50 with Canis familiaris of 0.05 mg/kg. The same compound gave an IC50 against Phosphodiesterase 3 of 1.2 µM.

For `CC1=C(c2ccc(-n3ccnc3)cc2)CC(C#N)C(=O)N1` (stereo unspecified), the IC50 on Phosphodiesterase 1 [2] amounted to 39 µM; in assay [3], 120 µM; against Phosphodiesterase 1 [1], 130 µM; in assay [4] it was 43 µM. The ED50 in the assay on Canis familiaris was 0.01 mg/kg.

With `CSc1ccc(C(=O)c2[nH]c(=O)[nH]c2C)cc1` [ENOXIMONE], in the assay on Canis familiaris, the ED50 was determined as 0.28 mg/kg.

As for `Nc1cc(-c2ccncc2)c[nH]c1=O` [INAMRINONE], the IC50 at Phosphodiesterase 1 [2] and against Phosphodiesterase 1 [1] was > 1000 µM throughout. In addition, it took a dose of 0.39 mg/kg to reach the 50% effect level in the assay with Canis familiaris (ED50).

The compound `Cc1[nH]c(=O)c(C#N)cc1-c1ccncc1` [MILRINONE] yielded an ED50 with Canis familiaris of 0.04 mg/kg.

In the assay on Canis familiaris, `CCc1[nH]c(=O)[nH]c1C(=O)c1ccncc1` [PIROXIMONE] displayed an ED50 of 0.1 mg/kg.
